# Experimental data published in patent publication US11603355B2, “Charged ion channel blockers and methods for use” (Nocion Therapeutics, Inc., priority 2019, dated 2023).
# What was measured:
# [1] = PAMPA membrane permeability assay; assay type: in vitro ADME; settings: permeability coefficient, pH 7.4 buffer, GIT lipid, 4 hours incubation
# Outline: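 Passive diffusion across a GIT-lipid-painted artificial membrane at pH 7.4, with a 50 uM donor stock diluted from DMSO and a 4 h incubation. UV spectra of the donor, acceptor and reference plates were read, and the permeability coefficient was calculated from the AUCs, in 10^−6 cm/s.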
# NaV1.7 = target: T1, NaV1.7 (Homo sapiens, UniProt Q15858); experiment: Manual patch clamp, internal block of NaV1.7 current; assay type: cell-based; settings: % inhibition at 10 μM test concentration, compound in internal solution, HEK293 cells, read-out: Nav1.7 Intracellular Inhibition
# T1 construct: expressed in transfected cells; host or cells: HEK293 (tetracycline-inducible)
# T1 sequence (Q15858 whole entry): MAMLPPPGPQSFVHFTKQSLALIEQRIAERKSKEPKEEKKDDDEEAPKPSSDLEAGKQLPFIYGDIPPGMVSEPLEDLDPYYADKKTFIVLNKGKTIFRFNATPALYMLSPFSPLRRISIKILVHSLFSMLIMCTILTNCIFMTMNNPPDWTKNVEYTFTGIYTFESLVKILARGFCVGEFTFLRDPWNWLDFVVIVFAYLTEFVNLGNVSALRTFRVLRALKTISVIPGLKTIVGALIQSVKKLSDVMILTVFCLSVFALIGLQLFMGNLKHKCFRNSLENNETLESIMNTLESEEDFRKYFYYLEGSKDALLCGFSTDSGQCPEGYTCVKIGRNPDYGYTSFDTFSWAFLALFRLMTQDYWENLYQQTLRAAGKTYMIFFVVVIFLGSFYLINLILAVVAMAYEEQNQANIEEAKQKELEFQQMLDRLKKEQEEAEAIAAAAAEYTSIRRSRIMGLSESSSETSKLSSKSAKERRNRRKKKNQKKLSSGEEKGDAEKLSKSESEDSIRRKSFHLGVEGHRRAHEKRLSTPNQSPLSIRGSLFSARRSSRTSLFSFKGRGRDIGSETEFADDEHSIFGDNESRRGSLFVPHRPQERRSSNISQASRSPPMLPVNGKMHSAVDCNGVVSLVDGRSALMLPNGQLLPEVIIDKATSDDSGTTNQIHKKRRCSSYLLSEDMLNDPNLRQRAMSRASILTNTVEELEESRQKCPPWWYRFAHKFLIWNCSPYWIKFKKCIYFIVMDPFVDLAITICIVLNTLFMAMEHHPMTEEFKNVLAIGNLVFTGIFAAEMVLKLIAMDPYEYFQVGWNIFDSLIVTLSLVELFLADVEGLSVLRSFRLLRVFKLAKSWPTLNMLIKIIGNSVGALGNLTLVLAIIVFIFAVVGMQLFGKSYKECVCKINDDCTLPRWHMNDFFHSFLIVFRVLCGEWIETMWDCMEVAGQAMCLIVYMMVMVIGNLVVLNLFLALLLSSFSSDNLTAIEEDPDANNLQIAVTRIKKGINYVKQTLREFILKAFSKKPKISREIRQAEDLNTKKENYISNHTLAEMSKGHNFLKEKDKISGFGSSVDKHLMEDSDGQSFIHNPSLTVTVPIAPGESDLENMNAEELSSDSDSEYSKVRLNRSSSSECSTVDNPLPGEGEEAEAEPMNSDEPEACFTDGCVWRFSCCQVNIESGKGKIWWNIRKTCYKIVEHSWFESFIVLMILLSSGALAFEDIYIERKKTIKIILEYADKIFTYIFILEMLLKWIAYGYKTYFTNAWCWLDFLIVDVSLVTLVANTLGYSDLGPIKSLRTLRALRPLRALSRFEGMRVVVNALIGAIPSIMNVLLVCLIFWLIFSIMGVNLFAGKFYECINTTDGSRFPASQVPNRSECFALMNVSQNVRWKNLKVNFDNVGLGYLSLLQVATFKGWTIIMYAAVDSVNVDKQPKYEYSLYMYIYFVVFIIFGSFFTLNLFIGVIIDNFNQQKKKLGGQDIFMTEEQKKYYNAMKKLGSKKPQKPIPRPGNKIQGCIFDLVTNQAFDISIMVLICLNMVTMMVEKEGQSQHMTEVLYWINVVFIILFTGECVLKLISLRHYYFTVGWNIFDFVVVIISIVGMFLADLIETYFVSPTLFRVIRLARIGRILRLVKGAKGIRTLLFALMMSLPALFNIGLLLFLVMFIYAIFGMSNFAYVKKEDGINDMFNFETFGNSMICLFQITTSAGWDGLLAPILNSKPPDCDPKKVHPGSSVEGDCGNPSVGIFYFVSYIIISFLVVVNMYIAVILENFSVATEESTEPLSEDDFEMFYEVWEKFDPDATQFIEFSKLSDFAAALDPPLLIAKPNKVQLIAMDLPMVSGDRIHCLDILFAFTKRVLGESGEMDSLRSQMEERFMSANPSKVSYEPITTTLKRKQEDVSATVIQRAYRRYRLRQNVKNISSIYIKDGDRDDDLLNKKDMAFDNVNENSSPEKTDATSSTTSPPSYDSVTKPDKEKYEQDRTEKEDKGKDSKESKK
# Outline: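 Whole-cell recordings at room temperature in tetracycline-induced HEK293 cells, compound in CsCl internal solution (pH 7.2), held at −100 mV with 10 ms steps to −20 mV. Four 30 s 5 Hz trains after 5 min baseline; fraction of peak inward current remaining computed as Itest/Ibaseline.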
smiles,measurement,setting,value
"CCCCNc1ccc(NC(=O)C[N+]2(Cc3ccccc3)CCCCCC2)cc1.O=C[O-] [Compound 41A, 1-benzyl-1-(2-((4-(butylamino)phenyl)amino)-2-oxoethyl) azepan-1-ium formate]",PAMPA (10^−6 cm/s),[1],+ (“+” (<0.1 10^−6 cm/s))
same,inhibition at 10 µM,NaV1.7,70 to 95%
